{"source": "patent US20090247495A1", "about": "“CU[…] AND USES THEREOF” (priority 2007, published 2009)", "key": {"[1]": {"tested_on": "HepG2(liver), HT29(colon) and MCF-7(breast)", "assay": "MTT cell cytotoxicity assay, three cancer cell lines", "assay_type": "cell-based", "conditions": "Homo sapiens; 48 hours; range over the three cell lines", "procedure": "(§1) Three human cancer cell lines (HepG2(liver), HT29(colon) and MCF-7(breast)) were purchased from American Type Culture Collection (ATCC, Manassas, Va., USA). The cells were cultured in RPMI 1640 medium supplemented with 5% (v/v) fetal bovine serum (FBS) and 100 units/ml penicillin and streptomycin (Invitrogen Life Technologies) in a humidified 5% CO2 atmosphere at 37° C.\n(§2) The cytotoxic effect of CuB and CuD on these three cancer cell lines were determined using MTT (3-[4,5-dimethylthiazol-2-yl]-2,5-diphenyl tetrazolium bromide) labeled cell cytotoxicity assay. A total of 1×10^4 cells were seeded into a 96-well plate for 24 hours prior to cucurbitacin B (CuB) or cucurbitacin D (CuD) treatment. They were then treated with different dosages of CuB/CuD for 48 hours. After the treatment, 20 μl of MTT (5 mg/ml) was added to each well and incubated for 4 hrs. Then the medium was discarded and 100 μl of dimethyl sulfoxide was added. The absorbance at 570 nm was then measured by using FLUOstar OPTIMA equipment (BMG, LABTECH GmbH, Germany). The percentage of inhibition against different dosages of CuB/CuD were plotted using the Prism software and the 50% inhibition concentration (IC50) were obtained."}, "[2]": {"tested_on": "59 human cancer cell lines", "assay": "SRB growth inhibition, 59-NCI Cancer Cell Line Panel", "assay_type": "cell-based", "conditions": "48 hours, range over 59 cell lines", "description": "Human cancer cell lines from the 59-NCI Cancer Cell Line Panel including leukemia, melanoma and cancers of breast, brain, colon, lung, ovary, prostate and kidney, were purchased from the National Institute of Cancer (USA). The growth inhibition (GI50) of these cell lines treated with cucurbitacin B and cucurbitacin D in various concentrations was investigated.\n59 human cancer cell lines were maintained in RPMI 1640 (Invitrogen Life Technologies, CA, USA) supplemented with 5% Fetal Bovine Serum, 2 mM L-glutamine and 1% Penicillin/Streptomycin (Invitrogen Life Technologies) at 37° C. with 5% CO2. All chemicals were purchased from Sigma (St. Louis, Mo., USA) unless specified otherwise.\nSulforhodamine B (SRB) assay was applied to determine the cytostatic effect of cucurbitacin B and cucurbitacin D. SRB is a dye that binds to cellular proteins and will be dissolved in base. The biomass of total protein can be measured at 520 nm using a plate reader.\nCells were inoculated into 96-well microtiter plates including “Time zero” (Tz) plates in 100 μl at cell concentrations from 5000 to 40,000 cells per well according to NCI guideline. The cells were incubated at 37° C. with 5% CO2 for 24 hours. […] Bound SRB was solubilized with 100-200 ul per well of 10 mM trizma base and absorbance was measured at a wavelength of 520 nm. The percentage of growth inhibition was calculated as follows: […]"}, "Panc-1 and SW cells": {"tested_on": "Panc-1 and SW cells", "assay": "Annexin V / PI apoptosis by flow cytometry, pancreatic cells", "assay_type": "cell-based, human", "conditions": "48 h, increasing concentration", "procedure": "Panc-1 and SW cells was incubated with vary doses of cucurbitacin B for 48 h at 37° C. At the end of treatment, cells were washed twice with cold PBS and resuspended at 2×10^6 cells/ml in 1×binding buffer. The cells were then stained with Annexin V and propidium iodide. All analyses were performed by flow cytometry."}, "PARP": {"tested_on": "PARP", "assay": "Western blot of PARP cleavage in HL60 cells", "assay_type": "cell-based, human", "procedure": "Control cells, as well as cells treated with cucurbitacin B or cucurbitacin D, were harvested and collected by centrifugation. Whole cell extracts were then prepared by lysing the cells using 4% sodium dodecyl sulfate (SDS) gel sample buffer. Cell extracts were boiled for 10 min and chilled on ice, subjected to 12% SDS-polyacrylamide gel electrophoresis, and transferred to a PVDF membrane. Each membrane was cut into to two pieces with one piece incubated at 4° C. overnight with antibodies against cell cycle signaling proteins, such as ERK, phosphorlated-ERK, p38, phosphorlated-p38, Cyclin E, Retinoblastoma, phosphalated-Retinoblastoma and c-myc, and apoptotic protein (PARP). β-actin was used as a control for protein loading. All antibodies were obtained from Cell signaling Technologies (USA). Then membranes were incubated at 37° C. for 1 h with secondary antibody conjugated with peroxidase, and the signal was detected using chemiluminescence detection reagent. The relative protein level was calculated as the ratio of the optical density of the protein of interest to that of β-actin."}, "[3]": {"tested_on": "colon cancer cell line (HT29)", "assay": "MTT cell cytotoxicity assay, HT29", "assay_type": "cell-based, human", "conditions": "Homo sapiens, HT-29; 48 hours; read-out: IC50", "procedure": "as §1, §2"}, "HL60 and U937 cells": {"tested_on": "HL60 and U937 cells", "assay": "Cell differentiation: CD11b expression by flow cytometry", "assay_type": "cell-based, human", "conditions": "96-hour treatment", "procedure": "HL60 and U937 cells were incubated with vary doses of cucurbitacin B for 96 hours at 37° C. For analysis of cell differentiaion, cells were then incubated with either R-phycoerythrin-conjugated murine anti-human CD11b antibody (DAKO, Carpinteria, Calif.). For analysis of cell cycle, cells were washed and fixed with chilled methanol, and incubated on ice for 30 minutes prior to staining with propidium iodide. All analyses were performed by flow cytometry.\nFollowing a 96-hour treatment with cucurbitacin B, HL60 (FIG. 14A) and U937 (FIG. 14B) cells were incubated with RPE-conjugated CD11b-specific antibody (dark grey) or RPE-conjugated IgGI control antibody (light grey), and flow cytometry was performed."}}, "data": [{"compound": "CC(=O)OC(C)(C)/C=C/C(=O)[C@](C)(O)C1[C@H](O)C[C@@]2(C)C3CC=C4C(C[C@H](O)C(=O)C4(C)C)[C@]3(C)C(=O)C[C@]12C", "note": "(stereo partly drawn) [cucurbitacin B]", "values": [{"measurement": "IC50", "setting": "[1]", "value": "0.31 to 1.6", "unit": "µg/mL"}, {"measurement": "GI50", "setting": "[2]", "value": "5.8 to 164", "unit": "nM"}, {"measurement": "apoptotic cells", "setting": "Panc-1 and SW cells", "value": "the percentage of apoptic cells rise"}, {"measurement": "apoptosis marker PARP", "setting": "PARP", "value": "cleavage of PARP"}, {"measurement": "IC50", "setting": "[3]", "value": 0.31, "unit": "µg/mL"}, {"measurement": "expression of cell surface marker CD11b", "setting": "HL60 and U937 cells", "value": "enhanced expression"}]}]}
